This is an account of results in patent US7491745B2, “Pyrrole-Type compounds, compositions and methods for treating cancer or viral disease” (Gemin X Pharmaceuticals Canada Inc., priority 2000, dated 2009).

Data set [1] has as its system C33A cervical carcinoma cells. The data set can be described thus: Cell viability, cellular ATP levels (ViaLight), C33A. Type of data set: cell-based, human. The settings on record: 72 hours; for effect on ATP levels in C33A cancer cell line compared with HMEC and MRC-5 normal cells (FIG. 1): 0.05 μM. The source says: (§1) C33A cervical carcinoma cells, Mrc-5 normal lung fibroblasts, PC-3 human prostatic carcinoma cell line, OVCAR-3 human ovarian carcinoma cal line, H460 large cell lung cancer cell line, A549 human lung carcinoma cell line, H1299 human non-small cell lung cancer cells, MCF-7 human breast cancer cell line, SW-480 human adenocarcinoma cell line, B16-F1 mouse melanoma cell line (American Type Culture Collection, Manassas, Va. USA), HMEC normal mammary epithelial cells (Clonetics San Diego, Calif., USA) and ADR-RES human breast cancer cell line (NCI, MD, USA) were cultured in the media recommended by the American Type Culture Collection. The cells lines were plated in 96-well microtiter plates (PerkinElmer Life Sciences Inc, Boston, Mass., USA) at a density that allowed them to reach confluence after 4 days of growth. One day after plating, the cells were treated with various concentrations of Compound 138T or Compound 139T. Stock solutions of the compounds were prepared in dimethyl sulfoxide (Sigma-Aldrich Inc., St. Louis, Mo., USA), diluted in media and then added to the cells. The total dimethyl sulfoxide on the cells was 1%. After 3 days of incubation the ATP levels in the cells were quantified using the luminescent ViaLight detection system (Bio-Whittaker, Md., USA). The results were plotted relative to untreated control cells, which were set at 100 (FIG. 1).

Data set [2] concerns PC-3 human prostatic carcinoma cell line. The data set can be described thus: Cell viability, cellular ATP levels (ViaLight), PC-3. Conditions: Cell line PC-3, Prostate, 72 hours, read-out: IC50 of Compound 138T. Format: cell-based.
Excerpt: as §1

Data set [3] concerns OVCAR-3 human ovarian carcinoma cal line. The data set can be described thus: Cell viability, cellular ATP levels (ViaLight), OVCAR-3. Conditions: Cell line OVCAR-3, Ovary, 72 hours, read-out: IC50 of Compound 138T. Type of data set: cell-based.
Excerpt: as §1

Data set [4] has as its system H460 large cell lung cancer cell line. Nature of the data set: Cell viability, cellular ATP levels (ViaLight), H460. Type of data set: cell-based. The settings on record: Homo sapiens, NCI-H460, Cell line H460, NSCL-LC, 72 hours, read-out: IC50 of Compound 138T.
Excerpt: as §1

In data set [5] the test system is A549 human lung carcinoma cell line. Nature of the data set: Cell viability, cellular ATP levels (ViaLight), A549. Type of data set: cell-based. The settings on record: Cell line A549, NSCL-aden, 72 hours, read-out: IC50 of Compound 138T.
Excerpt: as §1

Data set [6] relates to H1299 human non-small cell lung cancer cells. The data set can be described thus: Cell viability, cellular ATP levels (ViaLight), H1299. Type of data set: cell-based. Conditions: NCI-H1299, Cell line H1299, NSCL-LC, 72 hours, read-out: IC50 of Compound 138T.
Excerpt: as §1

The subject of data set [7] is ADR-RES human breast cancer cell line. The data set can be described thus: Cell viability, cellular ATP levels (ViaLight), ADR-RES. Type of data set: cell-based. Conditions: Cell line NCI/ADR-RES, Breast (Mutli-drug resistant), 72 hours, read-out: IC50 of Compound 138T.
Excerpt: as §1

For data set [8], the system named is MCF-7 human breast cancer cell line. The data set can be described thus: Cell viability, cellular ATP levels (ViaLight), MCF-7. Type of data set: cell-based. Conditions: MCF7, Cell line MCF-7, Breast, 72 hours, read-out: IC50 of Compound 138T.
Excerpt: as §1

Data set [9] concerns SW-480 human adenocarcinoma cell line. Nature of the data set: Cell viability, cellular ATP levels (ViaLight), SW-480. Format: cell-based. The settings on record: SW480, Cell line SW-480, Colorectal, 72 hours, read-out: IC50 of Compound 138T.
Excerpt: as §1

The test system of data set [10] is B16-F1 mouse melanoma cell line. The data set can be described thus: Cell viability, cellular ATP levels (ViaLight), B16-F1. The settings on record: Cell line B16-F1, Murine Melanoma, 72 hours, read-out: IC50 of Compound 138T. Type of data set: cell-based.
Excerpt: as §1

The subject of data set [11] is HMEC normal mammary epithelial cells. Nature of the data set: Cell viability, cellular ATP levels (ViaLight), HMEC. The settings on record: 72 hours. Format: cell-based.
Excerpt: as §1

Data set [12] deals with human cervical cancer C33A. Nature of the data set: Antitumor activity in vivo, C33A tumors in SCID mice (tumor volume). On the set-up: species or system CB17 SCID/SCID mice. The procedure: The C33A human cervical cancer cells were maintained in RPMI (Hyclone, Utah, USA) supplemented with 10% inactivated fetal bovine serum (Bio-Whittaker, Md., USA) and 1% penicillin-streptomycin-L-Glutamine (Gibco, N.Y., USA), under 5% CO2 at 37° C., and passaged twice a week. The cells were grown at a confluency lower than 70% and than collected with Trypsin (Bio-Whittaker, Md., USA). Cells were then centrifuged and washed two time in phosphate buffer solution (PBS) and resuspended in PBS at 2×10^6 cells per 100 μl. Viability was examined by staining with trypan blue (Gibco, N.Y., USA) and only flasks with cell viability greater than 95% were used for in vivo studies.
(§2) C33A cells were injected subcutaneously into the flanks of the female CB17 SCID/SCID mice. Each mouse was inoculated with a suspension of 2×10^6 tumor cells per 100 μl on day 0. There were ten mice in each treatment group, i.e., in the control group, the positive control group and the Compound 138T group.
(§3) Treatments started on day fourteen after C33A cells transplantation. Compound 138T was administered intravenously once daily for five consecutive days at a dose of 8 mg/kg. a solution of Compound 138T was prepared fresh daily in a vehicle solution of 5% Dextrose (Abbot Laboratories, QC, Canada) and 2% Tween20 (Sigma, St. Louis, Mo., USA). The control group was treated with vehicle alone. The injection volume for both, the Compound 138T treated group and the control group was 150 μl. The positive control group was treated once every 3 days for five times with cisplatin (Sigma, St. Louis, Mo., USA) at a dose of 4 mg/kg. Cisplatin was formulated in PBS on each day of the injection and was administered intraperitoneally in an injection volume of 80 μl.
(§4) The mice were weighed and the tumors were measured on day 13 and every 2 days after the treatment commenced. Observation continued for 40 days after initial tumor implantation. The changes in body weight and in the calculated tumor volume were plotted (FIG. 2 to 4).

A short description of data set [13]: Body weight and survival of C33A tumor-bearing SCID mice. Format: in vivo, CB17 SCID/SCID mice. As for the experimental part:
as §2, §3, §4

In data set [14] the test system is Normal Human Breast Epithelial Cells. The data set can be described thus: In vitro cytotoxicity assay (trypan blue), normal breast cells. Format: cell-based. The settings on record: for Cytoxicity (% Dead cells): Normal Human Breast Epithelial Cells. As for the experimental part: (§5) Normal and cancerous human breast cells were plated at a density of ˜70,000-80,000 cells/well in 24 well plates. Each test compound was added to the cell media at the indicated concentration and incubated at 37° C. in a CO2 incubator for the indicated time. Following incubation, cells were harvested and exposed to trypan blue dye; dead cells were stained exclusively (living cells remained unstained) and counted.

For data set [15], the system named is MCF-7 Breast Cancer cells. Nature of the data set: In vitro cytotoxicity assay (trypan blue), MCF-7. Format: cell-based, human. The settings on record: for Cytoxicity (% Dead cells): MCF-7 Breast Cancer cells. As for the experimental part: as §5
In data set [16] the test system is MBA-MB231 Breast Cancer cells. Nature of the data set: In vitro cytotoxicity assay (trypan blue), MBA-MB231. Conditions: for Cytoxicity (% Dead cells): MBA-MB231 Breast Cancer cells, 72 h. Format: cell-based, human. As for the experimental part: as §5
The subject of data set [17] is Normal and cancerous human breast cells. Nature of the data set: In vitro cytotoxicity assay, selective toxicity to oncogenic cells relative to normal cells. Type of data set: cell-based. Conditions: trypan blue cytotoxicity assay. The procedure:
as §5

Setting [18] is: 8 mg/kg intravenously once daily for five consecutive days from day fourteen.

Take `CCCCc1cc(C)c(C=C2N=C(c3ccc[nH]3)C=C2OC)[nH]1` [Compound 139T, 5′-(5-Butyl-3-methyl-1H-pyrrol-2-ylmethylene)-4′-methoxy-1H,5′H-[2,2′]bipyrrolyl]: the “effect on ATP levels in C33A cancer cell line compared with HMEC and MRC-5 normal cells (FIG. 1)” value in [1] was “significantly more effective at lowering ATP levels in C33A cancer cell line”.
As for `COC1=CC(c2ccc[nH]2)=NC1=Cc1[nH]c(C)cc1C` [Compound 138T, 5′-(3,5-Dimethyl-1H-pyrrol-2-ylmethylene)-4′-methoxy-1H,5′H-[2,2′]bipyrrolyl], the “effect on ATP levels in C33A cancer cell line compared with HMEC and MRC-5 normal cells (FIG. 1)” value in [1] is “significantly more effective at lowering ATP levels in C33A cancer cell line”. Moreover, the half-maximal inhibitory concentration (IC50) in data set [1] (Homo sapiens, C-33-A, Cell line C3AA, Cervix, ATP levels, read-out: IC50 of Compound 138T) was found to be 30 nM; in [2] it was 50 nM; in data set [3], 30 nM; in data set [4] it was 60 nM; in data set [5], 80 nM; in data set [6] it was 70 nM. For the same compound, the IC50 in data set [7] amounted to 70 nM; in data set [8] it was 70 nM; in data set [9], 50 nM; in data set [10], 20 nM; in data set [11] (Homo sapiens, Cell line HMEC, Normal Breast, ATP levels, read-out: IC50 of Compound 138T), 2000 nM. In addition, in data set [11] (ten cancer cell lines), the “effect on ATP levels in cancer cell lines compared with normal HMEC cell line” value is listed as “significantly more effective at lowering ATP levels in all the cancer cell lines”. In addition, in data set [12] (8 mg/kg intravenously once daily for five consecutive days), the “effect on human cervical tumors implanted in SCID mice” value is “significantly reduces the human cervical tumors implanted in SCID mice”. Further, the “tumor volume curve versus control, values in standard error of the mean (FIG. 4)” value in [12] (setting [18]) was “significantly different from control curve for a longer period of time, until day 39”. For the same compound, in [12] (setting [18]), the “tumor volume versus control, values expressed in 95% confidence interval (FIG. 3)” value is given as “significantly less than control until day 29”. The “tumor volume curve compared with the cisplatin treated group” value in [12] (8 mg/kg intravenously once daily for five consecutive days, cisplatin 4 mg/kg intraperitoneally) is on record as “follows the tumor volume curve of the cisplatin treated group until day 39”. For the same compound, the weight loss in data set [13] (8 mg/kg intravenously once daily for five consecutive days, day 22) is 10%.
On to `CCCCC1CCCCCCc2cc1c(/C=C1\N=C(c3ccc[nH]3)C=C1OC)[nH]2` (stereo not shown) [Butyl-meta-cycloheptylprodiginine, 2-Butyl-11-((3-methoxy-5-(1H-pyrrol-2-yl)-2H-pyrrol-2-ylidene)methyl)-10-azabicyclo[7.2.1]dodeca-9(12),11-diene], for which the “cell death in normal cells” value in data set [14] (0.25 mM concentration (Table 10)) worked out at 5%. Besides, the “Cytoxicity (% Dead cells)” value in data set [14] (0.25 μM, 72 h) is listed as 5%; in [14] (1.0 μM, 72 h), 5%; in [14] (2.0 μM, 72 h) it was 15%; in data set [15] (0.25 μM, 72 h) it was 70%; in data set [15] (1.0 μM, 72 h), 100%; in data set [15] (2.0 μM, 72 h), 100%. Also, the “Cytoxicity (% Dead cells)” value in [16] (0.25 μM) turned out to be 64%; in data set [16] (1.0 μM), 100%; in data set [16] (2.0 μM), 100%. Besides, the “cell death in cancer cells” value worked out at 70% in [15] (0.25 mM concentration (Table 10), first cancer cell value, MCF-7 in Table 10) and 64% in data set [16] (0.25 mM concentration (Table 10), second cancer cell value, MBA-MB231 in Table 10). The “selective toxicity to breast cancer cells relative to normal human breast epithelial cells” value in [17] was “selectively killed the breast cancer cells”.
Turning to Ethyl-meta-cyclononylprodiginine, the “Cytoxicity (% Dead cells)” value in data set [14] (0.2 μM, 24 h) is 10%; in [14] (1.0 μM, 24 h) it was 9%; in [14] (2.0 μM, 24 h), 15%; in data set [15] (0.2 μM, 24 h) it was 45%; in data set [15] (1.0 μM, 24 h) it was 62%; in data set [15] (2.0 μM, 24 h), 65%.
Regarding `N.N.[Cl][Pt][Cl]` [cisplatin], the weight loss in [13] (4 mg/kg intraperitoneally once every 3 days for five times, day 29) is 28%. The “mice died in treated group” value in data set [13] (4 mg/kg intraperitoneally once every 3 days for five times, days 29 and 32, ten mice per group) is listed as “Two”.

In general, IC50 refers to the concentration that inhibits the measured activity by half.
